The record followed here is patent publication US12502386B2, “Nitrogen-containing heterocyclic compound and use thereof” (SHANGHAI SHIJIANG BIOTECHNOLOGY CO., LTD, priority 2022, dated 2025).

In one assay the test system is Con-NCI-H82 cell. The assay is described as follows: CellTiter-Glo cell viability, Con-NCI-H82 cell (empty-vector control). The assay is classed as cell-based, human. The conditions noted are these: Homo sapiens, NCI-H82, NCI-H82 transfected with empty virus vector (control), intracellular ATP, read-out: inhibitory effect on Con-NCI-H82 (IC50). In general terms: In ATP-based viability assays light output follows the ATP content of the culture.

A further assay relates to ov-NNMT NCI-H82 cell. The assay can be described thus: CellTiter-Glo cell viability, ov-NNMT NCI-H82 cell (NNMT overexpressed). The assay is classed as cell-based, human. The conditions noted are these: Homo sapiens, NCI-H82, NCI-H82 overexpressing NNMT protein, intracellular ATP, read-out: inhibitory effect on OV-NNMT NCI-H82 (IC50).
Another assay deals with sh-DNMT1 NCI-H82 cell. The assay is described as follows: CellTiter-Glo cell viability, sh-DNMT1 NCI-H82 cell (DNMT1 knocked down). It counts as cell-based, human. The conditions noted are these: Homo sapiens, NCI-H82, NCI-H82 with DNMT1 knocked down by shRNA, intracellular ATP, read-out: inhibitory effect on sh-DNMT1 NCI-H82 (IC50).
The next assay concerns NCI-H82. The assay is described as follows: CellTiter-Glo cell viability, tumor cell line NCI-H82. It counts as cell-based. The conditions noted are these: NCI-H82, 72 h; human small cell lung cancer cell; 3 days of culture; read-out: inhibitory effect on NCI-H82 (IC50). As to the method: (§1) Cell viability was detected using the Promega CellTiter-Glo kit, cell viability was determined by directly measuring intracellular ATP content. In the experiment, the IC50 value of the compounds prepared in the Examples of the present invention on various tumor cell lines was detected.
(§2) Each tumor cell was cultured in relevant medium. After cell passage, the gradient diluted compounds prepared in the Examples of the present invention was added. After 3 days of culture, the relevant IC50 (50% inhibiting concentration) was measured. The name, source and culture conditions of each tumor cell line were as follows:
Cell line NCI-H82 (ATCC, No. HTB-175) was cultured in 10% fetal bovine serum-containing RPMI1640 medium (+P/S).

The test system of another assay is G-401. The assay is described as follows: CellTiter-Glo cell viability, tumor cell line G-401. It counts as cell-based. The conditions noted are these: G-401, 72 h; human renal carcinoma Wilms cell; 3 days of culture; read-out: inhibitory effect on G-401 (IC50). As to the method:
as §1, §2
Cell line G-401 (ATCC, No. CRL-1441) was cultured in 10% fetal bovine serum-containing McCoy's 5a medium (+P/S).

Another assay has as its system MDA-MB-453. The assay is described as follows: CellTiter-Glo cell viability, tumor cell line MDA-MB-453. It counts as cell-based. The conditions noted are these: Homo sapiens, MDA-MB-453, 72 h; breast cancer cell; 3 days of culture; read-out: inhibitory effect on MDA-MB-453 (IC50). As to the method:
as §1
(§3) Each tumor cell was cultured in relevant medium. After cell passage, the gradient diluted compounds prepared in the Examples of the present invention was added. After 3 days of culture, the relevant IC50 (50% inhibiting concentration) was measured. The name, source and culture conditions of each tumor cell line were as follows: […]

A further assay deals with SW48. The assay is described as follows: CellTiter-Glo cell viability, tumor cell line SW48. The assay is classed as cell-based. The conditions noted are these: SW48, 72 h; human colon adenocarcinoma cell; 3 days of culture; read-out: inhibitory effect on SW48 (IC50). As to the method:
as §1, §2
Cell line SW48 (ATCC, No. CCL-231) was cultured in 10% fetal bovine serum-containing Leibovitz's L-15 medium (+P/S).

The subject of the next assay is CFPAC-1. The assay is described as follows: CellTiter-Glo cell viability, tumor cell line CFPAC-1. It counts as cell-based. The conditions noted are these: CFPAC-1, 72 h; human pancreatic cancer cell; 3 days of culture; read-out: inhibitory effect on CFPAC-1 (IC50). As to the method: as §1, §2
Cell line CFPAC-1 (ATCC, No. CRL-1918) was cultured in 10% fetal bovine serum-containing IMDM medium (+P/S).

For another assay, the system named is 786-O. The assay is described as follows: CellTiter-Glo cell viability, tumor cell line 786-O. It counts as cell-based. The conditions noted are these: Homo sapiens, 786-0, 72 h; clear cell renal cell adenocarcinoma cell; 3 days of culture; read-out: inhibitory effect on 786-O (IC50). As to the method:
as §1, §2
Cell line 786-0 (ATCC, No. CRL-1932) was cultured in 10% fetal bovine serum-containing RPMI164B medium (+P/S).

The subject of the next assay is GB-1. The assay can be described thus: CellTiter-Glo cell viability, tumor cell line GB-1. The conditions noted are these: GB-1, 72 h; human brain glioblastoma cell; 3 days of culture; read-out: inhibitory effect on GB-1 (IC50). It counts as cell-based. As to the method: as §1, §2
Cell line GB-1 (JCRB, No. IFO50489) was cultured in 10% fetal bovine serum-containing DMEM medium (+P/S).
(§4) Cell viability was detected using the Promega CellTiter-Glo kit, cell viability was determined by directly measuring intracellular ATP content. In the experiment, the IC50 value of the compounds prepared in the Examples of the present invention on various brain tumor cell lines was detected.

In another assay the test system is SF-126. The assay can be described thus: CellTiter-Glo cell viability, tumor cell line SF-126. It counts as cell-based. The conditions noted are these: SF-126, 72 h, read-out: inhibitory effect on SF-126 (IC50); human glioblastoma multiforme cell; 3 days of culture. As to the method: as §1, §2
Cell line SF126 (JCRB, No. IFO50286) was cultured in 10% fetal bovine serum-containing EMEM medium (+P/S).
as §4

Another assay concerns D341 Med. The assay can be described thus: CellTiter-Glo cell viability, brain tumor cell line D341 Med. The conditions noted are these: Homo sapiens, 72 h, cerebellar medulloblastoma cell, 3 days of culture, read-out: inhibitory effect on D341 Med (IC50). It counts as cell-based. As to the method:
as §4, §2
Cell line D341 Med (ATCC, No. HTB-187) was cultured in 20% fetal bovine serum-containing EMEM medium (+P/S).

Another assay concerns Kelly. The assay is described as follows: CellTiter-Glo cell viability, brain tumor cell line Kelly. The assay is classed as cell-based. The conditions noted are these: Homo sapiens, 72 h, brain neuroblastoma cell, 3 days of culture, read-out: inhibitory effect on Kelly (IC50). As to the method: as §4, §2
Cell line Kelly (ECACC, No. 92110411) was cultured in 10% fetal bovine serum and 2 mM glutamine-containing RPMI1640 medium.

For another assay, the system named is NB-1. The assay can be described thus: CellTiter-Glo cell viability, brain tumor cell line NB-1. It counts as cell-based. The conditions noted are these: Homo sapiens, NB1, 72 h; brain neuroblastoma cell; 3 days of culture; read-out: inhibitory effect on NB-1 (IC50). As to the method:
as §4, §3

For orientation: IC50 means the concentration that inhibits the measured activity by half. Turning to `COc1ccc2c(c1OC/C=C(\C)CCC=C(C)C)C(C(Cl)(Cl)Cl)N1CCc3cc4c(cc3C1=C2)OCO4` (stereo not drawn) [AB35405], the IC50 in the assay with Con-NCI-H82 cell turned out to be 920 nM; with ov-NNMT NCI-H82 cell it was 2130 nM; in the assay with sh-DNMT1 NCI-H82 cell, 3860 nM; in the assay on NCI-H82, 920 nM; in the assay with G-401, 880 nM; in the assay with MDA-MB-453 it was 1760 nM. The half-inhibitory concentration (IC50) amounted to 2340 nM with SW48; 18300 nM in the assay on CFPAC-1; 13100 nM with 786-O; 16000 nM in the assay with GB-1; 20300 nM in the assay with SF-126; 760 nM with D341 Med. For the same compound, the half-maximal inhibitory concentration (IC50) with Kelly came out at 3120 nM; with NB-1, 2460 nM.
As to `COc1ccc2c(c1OC)CN1CCc3cc4c(cc3C1=C2Cc1ccc(OC(F)(F)F)cc1)OCO4` [AB31866], the IC50 stood at 820 nM with Con-NCI-H82 cell; 1860 nM in the assay on ov-NNMT NCI-H82 cell; 3480 nM in the assay on sh-DNMT1 NCI-H82 cell; 820 nM in the assay with NCI-H82; 1080 nM in the assay on G-401; 2320 nM in the assay on MDA-MB-453. Further, the IC50 was determined as 1960 nM in the assay with SW48; 12400 nM with CFPAC-1; 15600 nM with 786-O; 10500 nM in the assay on GB-1; 20100 nM with SF-126; 1540 nM in the assay with D341 Med. In addition, the IC50 in the assay with Kelly amounted to 1320 nM; in the assay on NB-1 it was 2190 nM.
Consider `CCCC1=C2c3cc4c(cc3CCN2C(C2CCCC2)c2c1ccc(OC)c2OC)OCO4` (stereo not drawn) [AB35504], for which the IC50 turned out to be 2220 nM in the assay with Con-NCI-H82 cell; 4960 nM with ov-NNMT NCI-H82 cell; 6760 nM with sh-DNMT1 NCI-H82 cell; 2220 nM in the assay on NCI-H82; 3120 nM in the assay on G-401; 1960 nM in the assay with MDA-MB-453. The IC50 in the assay with SW48 was 3560 nM; with CFPAC-1, 25600 nM; with 786-O it was 20400 nM; with GB-1, greater than 30000 nM; with SF-126, greater than 30000 nM; in the assay with D341 Med, 1580 nM. The IC50 was found to be 3030 nM in the assay with Kelly and 3580 nM in the assay on NB-1.
With `[2H]C([2H])([2H])Oc1c(OC)ccc2c1C(C1CCCC1)N1CCc3cc4c(cc3C1=C2)OCO4` (stereo not drawn) [AB36501], the half-maximal inhibitory concentration (IC50) in the assay on Con-NCI-H82 cell is 970 nM; with ov-NNMT NCI-H82 cell, 4330 nM; with sh-DNMT1 NCI-H82 cell it was 5120 nM; in the assay on NCI-H82, 970 nM; in the assay on G-401, 880 nM; with MDA-MB-453, 1320 nM. The IC50 in the assay with SW48 was 1160 nM; with CFPAC-1 it was 9880 nM; with 786-O, 13100 nM; in the assay on GB-1 it was 13300 nM; with SF-126, 15400 nM; in the assay on D341 Med, 760 nM. In addition, the 50% inhibitory concentration (IC50) was determined as 1380 nM with Kelly and 2060 nM in the assay with NB-1.
`COc1ccc2c(c1OCCCCl)C(C(Cl)(Cl)Cl)N1CCc3cc4c(cc3C1=C2)OCO4` (stereo not drawn) [AB35441]: the IC50 in the assay on Con-NCI-H82 cell is 1010 nM; with ov-NNMT NCI-H82 cell, 3210 nM; with sh-DNMT1 NCI-H82 cell, 2980 nM; in the assay with NCI-H82, 1010 nM; with G-401, 1560 nM; in the assay with MDA-MB-453, 980 nM. In addition, the IC50 in the assay with SW48 is 1220 nM; with CFPAC-1, 12300 nM; in the assay on 786-O, 16500 nM; in the assay on GB-1, 24400 nM; with SF-126 it was greater than 30000 nM; in the assay on D341 Med, 2320 nM. The IC50 in the assay on Kelly is 3160 nM; in the assay on NB-1, 1980 nM.
Turning to `COc1ccc2c(c1OC)C(C1CCC1)N1CCc3cc4c(cc3C1=C2)OCO4` (stereo not drawn) [AB36447], the IC50 is 2020 nM with Con-NCI-H82 cell; 4980 nM with ov-NNMT NCI-H82 cell; 7120 nM in the assay on sh-DNMT1 NCI-H82 cell; 2020 nM in the assay on NCI-H82; 2680 nM in the assay on G-401; 2120 nM in the assay on MDA-MB-453. Moreover, the IC50 in the assay on SW48 is 1960 nM; in the assay with CFPAC-1, 20100 nM; in the assay on 786-O, greater than 30000 nM; with GB-1, 24600 nM; in the assay with SF-126 it was greater than 30000 nM; in the assay on D341 Med it was 2750 nM. Further, the IC50 with Kelly was 1980 nM; in the assay with NB-1, 2040 nM.
